Test results from patent publication US20080050764A1, “Method and Apparatus for Measuring Enviromental Allergen” (Japan Science and Technology Agency, priority 2003, published 2008).
“Also recorded” adds a separate entry of the source. * marks the point of attachment. AMC = Cc1cc(=O)oc2cc(N*)ccc12; Boc = CC(C)(C)OC(=O)*

What was measured:
[1] = tested on: Cedar Pollen (Cedar Pollen-Cj Japanese Cedar); experiment: Measurement of cedar pollen with protease substrates, fluorescence (Example 7); type: biochemical; conditions: substrate 10 mM in DMSO, 37° C. 15 minutes, excitation 355 nm
Protocol: • Cedar Pollen (Cedar Pollen-Cj Japanese Cedar) (produced by LSL) • Leu-MCA and Boc-Val-Leu-Lys-MCA as protease substrates (both of them were produced by PEPTIDE INSTITUTE INC)
Cedar pollen was suspended in phosphate buffer to a concentration of 1 mg/ml and the suspension was diluted with phosphate buffer as appropriate. Each of the dilutions in an amount of 45 μL was mixed with 5 μL of the substrate dissolved in DMSO to a concentration of 10 mM, and the resulting mixture was incubated at 37° C. for 15 minutes. Using a plate reader, excitation was carried out at a wavelength of 355 nm, and fluorescence intensity at 460 nm was measured.

[2] = tested on: Mite Extract Df (Mite dermatophagoides farinae); experiment: Protease substrate cleavage by mite extract, fluorescence (Example 9); type: biochemical; conditions: substrate 10 mM in DMSO, room temperature overnight, excitation 355 nm
Protocol: • Mite Extract Df (Mite dermatophagoides farinae) (obtained by extracting mites with phosphate buffer and freeze-drying the soluble fragment) (produced by LSL) • Protease Substrates (Met-MCA, Boc-Gln-Ala-Arg-MCA, Boc-Val-Leu-Lys-MCA, Bz-Arg-MCA, Glt-Ala-Ala-Phe-MCA (Glt means glutaryl) (All of them were produced by PEPTIDE INSTITUTE INC)
In phosphate buffer or water, mites were suspended to a concentration of 1 mg/ml, and the suspension was diluted with phosphate buffer as appropriate. Each of the dilutions in an amount of 50 μL was mixed with 5 μL of the substrate dissolved in DMSO to a concentration of 10 mM, and the resulting mixture was incubated at room temperature overnight. Using a plate reader, excitation was carried out at a wavelength of 355 nm, and fluorescence intensity at 460 nm was measured.

Cedar Pollen Extract = experiment: Quantification of cedar pollen extract with protease substrates, fluorescence (Example 8); type: biochemical, Japanese Cedar; conditions: substrate 10 mM in DMSO, 37° C. 15 minutes, excitation 355 nm
Protocol: • Cedar Pollen Extract (Cedar Pollen Extrace-CJ) (produced by LSL) • Leu-MCA and Boc-Val-Leu-Lys-MCA as protease substrates (both of them were produced by PEPTIDE INSTITUTE INC)
The cedar pollen extract was the centrifugation supernatant obtained by stirring cedar pollen in 0.125 M NaHCO3 (pH8) for 16 hours, and lightly homogenizing the mixture, followed by centrifugation. The extract was suspended in 5 mM borate buffer (pH8.0) containing 0.9% NaCl to a concentration of 666 μg/ml, and the resulting mixture was diluted with phosphate buffer as appropriate. Each of the samples in an amount of 45 μL was mixed with 5 μL of the substrate dissolved in DMSO to a concentration of 10 mM, and the resulting mixture was incubated at 37° C. for 15 minutes. Using a plate reader, excitation was carried out at a wavelength of 355 nm, and fluorescence intensity at 460 nm was measured.

**Q.** With `Cl.NC(N)=NCCCC(NC(=O)c1ccccc1)C(=O)Nc1ccc([N+](=O)[O-])cc1` (racemic) [Bz-DL-Arg-pNA.HCl] as the molecule, how does the “reaction of substrate with cedar pollen (fluorescence intensity at 460 nm)” value [1] read?
**A.** reacts

**Q.** Which “cleavage of substrate by mite antigen (fluorescence intensity at 460 nm)” value (from here on “cleavage of substrate by mite antigen”) [2] does the source give for `Cc1cc(=O)oc2cc(NC(=O)[C@H](CCCNC(=N)N)NC(=O)c3ccccc3)ccc12` [Bz-Arg-MCA] here?
**A.** not substantially cleaved

**Q.** `Cc1cc(=O)oc2cc(NC(=O)C(N)CC(C)C)ccc12` (stereo not drawn) [Leu-MCA] was tested. Which “reaction of substrate with cedar pollen (fluorescence intensity at 460 nm)” value [1] did it give?
**A.** reacts

**Q.** How did the “cleavage of substrate by mite antigen” value [2] turn out when `CSCCC(N)C(=O)Nc1ccc2c(C)cc(=O)oc2c1` (stereo not drawn) [Met-MCA] was run?
**A.** effectively measured

**Q.** For Boc-Gln-Ala-Arg-{AMC}, which “cleavage of substrate by mite antigen” value [2] is on record?
**A.** effectively measured

**Q.** How did the “reaction of substrate with cedar pollen (fluorescence intensity at 460 nm)” value [1] turn out when Boc-Val-Leu-Lys-{AMC} was run?
**A.** fluorescence was not dependent on the amount of cedar pollen; also recorded: does not react

**Q.** What about the “cleavage of substrate by mite antigen” value [2] of the same molecule?
**A.** effectively measured; also recorded: reacts

**Q.** What about the “reaction of substrate with cedar pollen extract (fluorescence intensity at 460 nm)” value (Cedar Pollen Extract) of the same molecule?
**A.** fluorescence was not dependent on the amount of cedar pollen

**Q.** How did the “cleavage of substrate by mite antigen” value [2] turn out when Glt-Ala-Ala-Phe-MCA was run?
**A.** not substantially cleaved
